Measured values from patent US10577382B2, “Fused heterocyclic compound” (TAKEDA PHARMACEUTICAL COMPANY LIMITED, priority 2016, dated 2020).
Each block holds one molecule with its values, some of them ahead of it.

Key:
HCT116 cells = experiment: Growth inhibitory activity using HCT116 cells (Cell Titer-Glo); assay type: cell-based, human; settings: compound 1 μM, 3 days; for inhibition at 1 µM: Homo sapiens, HCT-116, 72 h, read-out: Cell growth inhibition ratio at compound concentration of 1 μM
Protocol: HCT 116 cells (ATCC) were seeded in a 384-well plate at a density of 6×10^2 cells/well, and cultured overnight in a cell culture medium McCoy's 5A (Thermo Fisher Scientific) containing 10% FBS (fetal bovine serum) and 1% penicillin/streptomycin. The dissolved test compound was added in the cell medium, and the cell medium was left standing in a CO2 incubator (37° C.) for 3 days. A Cell Titer-Glo solution (Promega Corporation) was added, the mixture was stirred at room temperature for 10 minutes, and the emission value was measured by Envision (PerkinElmer). The inhibition ratio (%) of HCT116 cell growth by the test compound was calculated in accordance with the following expression. Inhibition ratio (%)=(1−(count of test compound−blank)÷(control−blank))×100
The count of the HCT116 cell suspension without addition of the compound was described as a control, and the count without addition of the compound and addition of HCT116 cells was described as a blank. The concentration at which the inhibition ratio was 50% was defined as an IC50 value.

CLK2 enzyme = molecular target: T1, CLK2 enzyme (Homo sapiens, UniProt P49760); experiment: Measurement of CLK2 inhibitory activity (LANCE time-resolved fluorescence, ULight-labeled MBP peptide); assay type: biochemical; settings: compound 1 μM; for inhibition at 1 µM: ATP 1 mM, read-out: CLK2 activity inhibition ratio at compound concentration of 1 μM (ATP 1 mM)
T1 construct: purchased Thermo Fisher Scientific
Protocol: A test compound dissolved in DMSO was added to a reaction solution (50 mM HEPES (pH: 7.5), 10 mM MgCl2, 1 mM EGTA, 2 mM DTT, 0.01% Tween 20, 0.01% BSA) containing a CLK2 enzyme (Thermo Fisher Scientific) and an ULight-labeled MBP peptide (PerkinElmer), and the mixture was then reacted at room temperature for 10 minutes. An ATP solution was added to a final concentration of 1 mM to initiate an enzyme reaction, and the reaction was carried out at room temperature for 60 minutes. A europium-labeled anti-phosphorylated MBP antibody (PerkinElmer) and a LANCE Detection buffer (PerkinElmer) containing EDTA with a final concentration of 20 mM were added to stop the reaction, the mixture was left standing for 60 minutes, and the time-resolved fluorescence value (excitation 320 nm, and emission 615 nm and 665 nm) was measured by Envision (PerkinElmer). The inhibition ratio (%) of CLK2 by the test compound was calculated in accordance with the following expression. Inhibition ratio (%)=(1−(count of test compound−blank)÷(control−blank))×100
The count of the CLK2 enzyme reaction solution without addition of the compound was described as a control, and the count without addition of the compound and addition of the CLK2 enzyme was described as a blank. The concentration at which the inhibition ratio was 50% was defined as an IC50 value.

T1 sequence (P49760 whole entry): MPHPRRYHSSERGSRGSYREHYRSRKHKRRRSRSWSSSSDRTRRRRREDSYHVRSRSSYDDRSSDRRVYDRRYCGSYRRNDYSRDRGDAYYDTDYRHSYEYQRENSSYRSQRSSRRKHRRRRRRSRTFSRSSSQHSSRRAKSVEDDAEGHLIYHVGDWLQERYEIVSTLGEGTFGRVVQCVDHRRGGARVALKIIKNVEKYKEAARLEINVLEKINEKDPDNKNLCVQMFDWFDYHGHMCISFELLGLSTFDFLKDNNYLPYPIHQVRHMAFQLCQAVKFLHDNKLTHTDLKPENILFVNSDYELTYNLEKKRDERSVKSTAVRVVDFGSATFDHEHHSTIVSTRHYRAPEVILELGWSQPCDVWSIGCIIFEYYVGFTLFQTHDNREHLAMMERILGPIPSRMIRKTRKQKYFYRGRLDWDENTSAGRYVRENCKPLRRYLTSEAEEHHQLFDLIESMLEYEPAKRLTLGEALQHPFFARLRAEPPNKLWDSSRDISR

inhibition at 1 µM (CLK2 enzyme): 100%
Structure (SMILES): COc1ncnn2ccc(-c3cnc4nc(C)n(Cc5cccc(F)c5)c4c3)c12 [Example 175, 1-(3-fluorobenzyl)-6-(4-methoxypyrrolo[2,1-f][1,2,4]triazin-5-yl)-2-methyl-1H-imidazo[4,5-b]pyridine]
inhibition at 1 µM (HCT116 cells): 91%

inhibition at 1 µM (CLK2 enzyme): 100%
Structure (SMILES): COc1ncnn2ccc(-c3cnc4nc(CO)n(Cc5cc(F)cc(F)c5)c4c3)c12 [Example 176, (1-(3,5-difluorobenzyl)-6-(4-methoxypyrrolo[2,1-f][1,2,4]triazin-5-yl)-1H-imidazo[4,5-b]pyridin-2-yl)methanol]
inhibition at 1 µM (HCT116 cells): 85%

inhibition at 1 µM (CLK2 enzyme): 100%
Structure (SMILES): COc1ncnn2ccc(-c3cnc4nc(C)n(Cc5cc(C)no5)c4c3)c12 [Example 215]
inhibition at 1 µM (HCT116 cells): 95%

inhibition at 1 µM (CLK2 enzyme): 100%
Structure (SMILES): COc1ncnn2ccc(-c3cnc4nc(C)n(Cc5nnc(C(F)F)o5)c4c3)c12 [Example 242, 1-((5-(difluoromethyl)-1,3,4-oxadiazol-2-yl)methyl)-6-(4-methoxypyrrolo[2,1-f][1,2,4]triazin-5-yl)-2-methyl-1H-imidazo[4,5-b]pyridine]
inhibition at 1 µM (HCT116 cells): 94%

inhibition at 1 µM (CLK2 enzyme): 100%
Structure (SMILES): COc1ncnc2ccn(-c3cnc4nc(C)n(Cc5cc(F)cc(F)c5)c4c3)c12 [Example 7, 1-(3,5-difluorobenzyl)-6-(4-methoxy-5H-pyrrolo[3,2-d]pyrimidin-5-yl)-2-methyl-1H-imidazo[4,5-b]pyridine]
inhibition at 1 µM (HCT116 cells): 92%

inhibition at 1 µM (CLK2 enzyme): 99%
Structure (SMILES): COc1ncnn2ccc(-c3cnc4nc(C)n(Cc5nc(C)no5)c4c3)c12 [Example 186, 6-(4-methoxypyrrolo[2,1-f][1,2,4]triazin-5-yl)-2-methyl-1-((3-methyl-1,2,4-oxadiazol-5-yl)methyl)-1H-imidazo[4,5-b]pyridine]
inhibition at 1 µM (HCT116 cells): 96%

The next lines start with the molecule.

Structure (SMILES): COc1ncnn2ccc(-c3cnc4nc(C)n(Cc5noc(C)n5)c4c3)c12 [Example 214, 6-(4-methoxypyrrolo[2,1-f][1,2,4]triazin-5-yl)-2-methyl-1-((5-methyl-1,2,4-oxadiazol-3-yl)methyl)-1H-imidazo[4,5-b]pyridine]
inhibition at 1 µM (HCT116 cells): 96%
inhibition at 1 µM (CLK2 enzyme): 99%

Structure (SMILES): COc1ncnn2ccc(-c3cnc4nc(C)n(Cc5nc(C)ns5)c4c3)c12 [Example 229, 6-(4-methoxypyrrolo[2,1-f][1,2,4]triazin-5-yl)-2-methyl-1-((3-methyl-1,2,4-thiadiazol-5-yl)methyl)-1H-imidazo[4,5-b]pyridine]
inhibition at 1 µM (HCT116 cells): 97%
inhibition at 1 µM (CLK2 enzyme): 100%

Structure (SMILES): COc1cnc2ccn(-c3cnc4nc(C)n(Cc5cccc(F)c5)c4c3)c2n1 [Example 110, 1-(3-fluorobenzyl)-6-(3-methoxy-5H-pyrrolo[2,3-b]pyrazin-5-yl)-2-methyl-1H-imidazo[4,5-b]pyridine]
inhibition at 1 µM (HCT116 cells): 92%
inhibition at 1 µM (CLK2 enzyme): 100%

Structure (SMILES): COc1ncnn2ccc(-c3cnc4nc(C)n(Cc5nnc(C(C)(F)F)o5)c4c3)c12 [Example 274]
inhibition at 1 µM (HCT116 cells): 93%
inhibition at 1 µM (CLK2 enzyme): 100%

Structure (SMILES): COc1nc2ncc(-n3ccc4ncc(C(C)O)nc43)cc2n1Cc1cccc(F)c1 (stereo not shown) [Example 160, 1-(5-(1-(3-fluorobenzyl)-2-methoxy-1H-imidazo[4,5-b]pyridin-6-yl)-5H-pyrrolo[2,3-b]pyrazin-3-yl)ethanol]
Cell growth inhibition ratio at compound concentration of 1 μM (HCT116 cells): 98%
CLK2 activity inhibition ratio at compound concentration of 1 μM (ATP 1 mM) (CLK2 enzyme): 100%

Structure (SMILES): COc1ccnc2ccn(-c3cnc4nc(C)n(Cc5cccc(F)c5)c4c3)c12 [Example 102, 1-(3-fluorobenzyl)-6-(7-methoxy-1H-pyrrolo[3,2-b]pyridin-1-yl)-2-methyl-1H-imidazo[4,5-b]pyridine]
inhibition at 1 µM (HCT116 cells): 95%
inhibition at 1 µM (CLK2 enzyme): 100%

Structure (SMILES): COc1ncnn2ccc(-c3cnc4nc(C)n(Cc5nnc(C)o5)c4c3)c12 [Example 193, 6-(4-methoxypyrrolo[2,1-f][1,2,4]triazin-5-yl)-2-methyl-1-((5-methyl-1,3,4-oxadiazol-2-yl)methyl)-1H-imidazo[4,5-b]pyridine]
inhibition at 1 µM (HCT116 cells): 98%
inhibition at 1 µM (CLK2 enzyme): 100%

Structure (SMILES): COc1ncnn2ccc(-c3cnc4nc(C)n(Cc5nnc(C(C)(C)F)o5)c4c3)c12 [Example 277, 1-((5-(2-fluoropropan-2-yl)-1,3,4-oxadiazol-2-yl)methyl)-6-(4-methoxypyrrolo[2,1-f][1,2,4]triazin-5-yl)-2-methyl-1H-imidazo[4,5-b]pyridine]
inhibition at 1 µM (HCT116 cells): 95%
inhibition at 1 µM (CLK2 enzyme): 100%

Structure (SMILES): COc1ncnn2ccc(-c3cnc4nc(C)n(Cc5nnc(C6(F)CC6)o5)c4c3)c12 [Example 283, 1-((5-(1-fluorocyclopropyl)-1,3,4-oxadiazol-2-yl)methyl)-6-(4-methoxypyrrolo[2,1-f][1,2,4]triazin-5-yl)-2-methyl-1H-imidazo[4,5-b]pyridine]
inhibition at 1 µM (HCT116 cells): 96%
inhibition at 1 µM (CLK2 enzyme): 100%

Structure (SMILES): COc1ccnc2cnn(-c3cnc4nc(C)n(Cc5cccc(F)c5)c4c3)c12 [Example 105, 1-(1-(3-fluorobenzyl)-2-methyl-1H-imidazo[4,5-b]pyridin-6-yl)-7-methoxy-1H-pyrazolo[4,3-b]pyridine]
inhibition at 1 µM (HCT116 cells): 96%
inhibition at 1 µM (CLK2 enzyme): 100%

Structure (SMILES): COc1nc2ncc(-n3ccc4ncc(C(C)O)nc43)cc2n1Cc1cccc(F)c1 (stereo not shown) [Example 161, 1-(5-(1-(3-fluorobenzyl)-2-methoxy-1H-imidazo[4,5-b]pyridin-6-yl)-5H-pyrrolo[2,3-b]pyrazin-3-yl)ethanol]
inhibition at 1 µM (HCT116 cells): 97%
inhibition at 1 µM (CLK2 enzyme): 100%
